# Experimental data taken from patent US20100159496A1, “EVALUATION METHOD FOR PHOTOSYNTHESIS SAMPLE, EVALUATION SYSTEM FOR PHOTOSYNTHESIS SAMPLE, AND EVALUATION PROGRAM FOR PHOTOSYNTHESIS SAMPLE” (HAMAMATSU PHOTONICS K.K., priority 2006, published 2010).
# Columns and labels:
# [1] = system: Spirulina platensis; assay: Algae growth inhibition, area under growth curve (OECD Test Guideline 201), S. platensis; assay type: cell-based; conditions: 72 hours after exposure, various simazine concentrations (FIG. 9)
# Experimental: The area under the growth curve indicates cell growth, which is a conventional evaluation index of chemical substance impact on algae and is computed in compliance to a method for evaluating the impact of a chemical substance on a general algae (OECD Test Guideline 201). That is, the area under the growth curve is the area under the growth curve obtained by culturing 6 mL of an S. platensis cell suspension, adjusted to have an absorbance at 750 nm of 0.03, under a white fluorescent lamp (50 μmol·m−2·s−1) for 72 hours after chemical substance exposure and measuring, every 24 hours, a cell density as the absorbance at 750 nm.
# [2] = system: Pseudokircheneriella subcapitata; assay: Delayed luminescence of P. subcapitata exposed to simazine, fitted by Formula (1); assay type: cell-based; parameters: key to Computed value E: E computed by Formula (2) from fitted coefficients ai, bi, ci; conditions: for luminescence amount of delayed luminescence, exposed vs not exposed: 15 minutes after exposure (FIG. 14); for Fitting formula value a1 / Fitting formula value a2 / Fitting formula value a3 / Fitting formula value b1 / Fitting formula value b2 / Fitting formula value b3 / Fitting formula value c1 / Fitting formula value c2 / Fitting formula value c3: 15 minutes after exposure; for Computed value E: Formula (2) from coefficients of Table 2; for Area value (quadrature by parts): third function f3(t), t=0 to 90, Δt 0.1
# Experimental: In the present example, the measurement of delayed luminescence was carried out as follows. 2.5 mL of a P. subcapitata cell suspension, adjusted to have an absorbance at 660 nm of 0.2 in a general, 10×10 mm spectrometric cell, was exposed to simazine of any of various concentrations and left to stand for 15 minutes under a white fluorescent lamp of a light amount of 50 μmol·m−2·s−1. Thereafter, inside the measuring device 10, a red light (660 nm) of approximately 300 μmol·m−2·s−1 was illuminated for 10 seconds from the light source 18 as the excitation light for making delayed luminescence be emitted and then the delayed luminescence emitted after extinguishing of the excitation light was recorded for 50 seconds at 0.1 second intervals.
# In the present example, the above-described Formula (1) was used for fitting. As examples for description of the fitting results, the measurement result for the “Not exposed” case is shown in FIG. 15A and a graph of the results of fitting to the measurement data are shown in FIG. 15B. In FIG. 15B, f1(t), f2(t), and f3(t) are respectively the first function, the second function, and the third function in Formula (1). From FIG. 15, it can be understood that the delayed luminescence measurement data can be fitted by a plurality of hill-shaped function.
# By the fitting, the function coefficients, ai, bi, and ci (i=1, 2, 3) are determined.
# As another example of the evaluating step, a case of evaluating by an evaluation value computed based on a computation formula shall be described. As the evaluation value, an evaluation value E is computed from the determined coefficient values ai, bi, and ci (i=1, 2, 3) and based on Formula (2) described above. Here, the constants mj (j=1 to 9) are set, for example, so that m1=1/a3, m2=1, m3=1, m4=1/a2, m5=1/b2, m6=1/c2, m7=1, m8=1/a1, m9=1/c1. As the constants mj, those that are appropriate according to the measurement conditions and algae species can be set. If instead of using all of the coefficient values, only a portion is to be used as described above, a reciprocal of a coefficient value, such as 1/a3, is set to the corresponding mj (j=1 to 9) for each coefficient value to be ignored.
# As another example of the evaluating step, a case of evaluating by an area value computed based on the coefficient values of a function shall be described. As mentioned above, the area value is the value of the area of a region surrounded by the curve indicating the function value in the function graph and the time axis line positioned below the curve indicating the function value. The area value of a function is deeply related to the luminescence amount of the photon component expressed by the function. In the present example, based on the coefficient values obtained from the results of exposing simazine to P. subcapitata shown in Table 2, area values were determined for the third function f3(t) in Formula (1) in a range of t=0 to 90 by quadrature by parts with at interval Δt being set equal to 0.1.
# [3] = simazine exposure concentration 5 μg/L
# [4] = simazine exposure concentration 25 μg/L
# [5] = simazine exposure concentration 50 μg/L
# [6] = simazine exposure concentration 100 μg/L
smiles,measurement,setting,value
"CCNc1nc(Cl)nc(NCC)n1 [Simazine, simazine]",cell growth (area under the growth curve),[1],inhibited according to the exposure concentration of simazine
same,variation of evaluation value c3 with simazine exposure concentration,[2]; P. subcapitata (FIG. 16),decreases in accordance with the simazine exposure concentration
same,variation of computed value E with simazine exposure concentration,[2]; P. subcapitata (FIG. 17),decreases in accordance with the simazine exposure concentration
same,variation of area value with simazine exposure concentration,[2]; P. subcapitata (FIG. 18),decreases in accordance with the simazine exposure concentration
same,"luminescence amount of delayed luminescence, exposed vs not exposed",[2]; early time period (near 0 seconds) of time after excitation,increases
same,"luminescence amount of delayed luminescence, exposed vs not exposed",[2]; later time period (5 seconds onward) after excitation,decreases
same,Fitting formula value a1,[2]; [3],0.05
same,Fitting formula value a2,[2]; [3],0.0037
same,Fitting formula value a3,[2]; [3],0.0005
same,Fitting formula value b1,[2]; [3],−0.5
same,Fitting formula value b2,[2]; [3],−0.5
same,Fitting formula value b3,[2]; [3],6
same,Fitting formula value c1,[2]; [3],5.2
same,Fitting formula value c2,[2]; [3],4.15
same,Fitting formula value c3,[2]; [3],3
same,Computed value E,[2]; [3],360
same,Area value (quadrature by parts),[2]; [3],24112.1
same,Fitting formula value a1,[2]; [4],0.05
same,Fitting formula value a2,[2]; [4],0.0035
same,Fitting formula value a3,[2]; [4],0.0004
same,Fitting formula value b1,[2]; [4],−0.5
same,Fitting formula value b2,[2]; [4],−0.5
same,Fitting formula value b3,[2]; [4],5
same,Fitting formula value c1,[2]; [4],5.2
same,Fitting formula value c2,[2]; [4],4.1
same,Fitting formula value c3,[2]; [4],2.9
same,Computed value E,[2]; [4],290
same,Area value (quadrature by parts),[2]; [4],19665.7
same,Fitting formula value a1,[2]; [5],0.08
same,Fitting formula value a2,[2]; [5],0.0044
same,Fitting formula value a3,[2]; [5],0.0005
same,Fitting formula value b1,[2]; [5],−0.5
same,Fitting formula value b2,[2]; [5],−0.5
same,Fitting formula value b3,[2]; [5],3
same,Fitting formula value c1,[2]; [5],5.4
same,Fitting formula value c2,[2]; [5],4.1
same,Fitting formula value c3,[2]; [5],2.9
same,Computed value E,[2]; [5],108.75
same,Area value (quadrature by parts),[2]; [5],16520.1
same,Fitting formula value a1,[2]; [6],0.1
same,Fitting formula value a2,[2]; [6],0.005
same,Fitting formula value a3,[2]; [6],0.005
same,Fitting formula value b1,[2]; [6],−0.5
same,Fitting formula value b2,[2]; [6],−0.5
same,Fitting formula value b3,[2]; [6],3
same,Fitting formula value c1,[2]; [6],5.6
same,Fitting formula value c2,[2]; [6],4.1
same,Fitting formula value c3,[2]; [6],2.7
same,Computed value E,[2]; [6],81
same,Area value (quadrature by parts),[2]; [6],4435.7
